According to PMC5395648, “Targeted Modification of a Novel Amphibian Antimicrobial Peptide from Phyllomedusa tarsius to Enhance Its Activity against MRSA and Microbial Biofilm” (Frontiers in Microbiology, 2017):
Converted amounts (≈) assume the structure as drawn. Non-standard residues stand in square brackets, D forms with d. Residues, ends and D or L forms follow the SMILES beside them. No end group written: not given here.

Tests used:
S. aureus biofilm = format: cell-based, Staphylococcus aureus; settings: for MBEC: 48 h
Protocol: MBIC and MBEC assays were performed using microtiter plates based on a modified 2,3,5-triphenyl tetrazolium chloride (TTC) method (Sabaeifard et al., [2014]). Overnight cultures were washed with sterile phosphate-buffered saline (PBS) and diluted with fresh broth to 10^7 CFU/ml. […] For the MBEC assay, 200 μl of inoculum was placed in a flat-bottomed microtiter plate for 48 h to form mature biofilms. Following sufficient growth time, mature biofilms were washed twice to remove the planktonic cells and incubated with a series of peptide concentrations (1–512 μg/ml) at 37°C for 20–24 h. After sufficient growth, plates were washed twice with sterile PBS followed by the addition of fresh medium (200 μl per well) and stained with 50 μl 1% TTC (g/v) solution for 5 h. After incubation, 200 μl of the supernatant from each well were transferred to a new plate and their absorbance values were measured at 470 nm using a Synergy HT plate reader (BioTek, USA).

[1] = system: Staphylococcus aureus (NCTC10788)
Protocol: (§1) The antimicrobial activity of each synthetic peptide was evaluated using the broth dilution method (Wiegand et al., [2008]). In brief, different concentrations of the peptides were incubated with microorganisms under defined conditions. Six different microorganisms were used in the assay: the Gram-positive bacteria Staphylococcus aureus (NCTC10788), Enterococcus faecalis (NCTC12697), and methicillin-resistant Staphylococcus aureus (MRSA) (NCTC 12493); the Gram-negative bacteria Escherichia coli (NCTC 10418) and Pseudomonas aeruginosa (ATCC 27853); and the yeast Candida albicans (NCYC 1467). Each microorganism was cultured in fresh Mueller-Hinton broth (MHB) overnight and then subcultured in fresh medium to a cell density equivalent to 10^8 colony-forming units (CFU)/ml. The microbial suspension was diluted with fresh MHB to a concentration of 1 × 10^5 CFU/ml. Peptide samples were dissolved in the culture medium MHB to prepare a 100-fold stock solutions and then 1 μl of each peptide solution was mixed with 99 μl of diluted bacterial culture to get a final concentration range from 1 to 512 μg/ml in two-fold dilution. […] From these wells, 10 μl of the overnight culture were added to a Mueller-Hinton agar (MHA) plate and cultured at 37°C for 16–20 h.

[2] = system: Escherichia coli (NCTC 10418)
Protocol: as §1

[3] = system: Pseudomonas aeruginosa (ATCC 27853)
Protocol: as §1

horse erythrocytes = format: cell-based
Protocol: The haemolysis assay was performed by mixing the peptides with mammalian erythrocytes obtained from fresh defibrinated horse blood. An appropriate volume of horse blood was transferred and washed with PBS until the supernatant was clear. A series of peptide solutions were incubated with a 2% suspension of red blood cells at final concentrations of 1-512 μg/ml at 37°C for 2 h. For positive and negative controls, the red blood cells were incubated with 1% Triton-X 100 and PBS, respectively. After incubation, 200 μl of the supernatant from each sample was transferred to a microtiter plate and the absorbance at 550 nm was measured with a Synergy HT plate reader (BioTek, USA). The therapeutic index (TI), a parameter recommended by the US FDA to indicate safety/efficacy usage, was calculated as the peptide concentration causing 50% haemolysis of the red bloods cells (HC50) divided by the geometric mean of the peptide MICs against the relevant bacteria (GM). […] In the former case, the MIC that was used when no inhibition was observed was the 2-fold maximum tested value ([…] al., [2016]). Data were analyzed to obtain the mean and standard error of responses. The statistical analyses were performed by one-way ANOVA and the statistical significance of the differences was indicated as ^*p < 0.05, ^**p < 0.01, ^***p < 0.001, and ^****p < 0.0001. The dose-response curves were constructed using a “best-fit” algorithm and HC50 was calculated through the data analysis package provided in GraphPad Prism 6 (GraphPad Software, USA).

[4] = system: Enterococcus faecalis (NCTC12697)
Protocol: as §1

[5] = system: Candida albicans (NCYC 1467)
Protocol: as §1

[6] = system: methicillin-resistant Staphylococcus aureus (MRSA) (NCTC 12493)
Protocol: as §1

Protocol for E. coli: The stability of the peptides was investigated by incubating them with serum and evaluating the loss of antimicrobial activity. […] Following a 4 h incubation at 37°C, the peptide solutions were briefly centrifuged and 1 μl of each concentration was mixed with 99 μl of diluted bacterial culture (5 × 10^5 CFU/ml) in a 96-well plate. The plate was then incubated at 37°C for 16–20 h. The MICs in the presence of serum were determined by use of a Synergy HT plate reader (BioTek, USA).

Row | Compound | MBIC (S. aureus biofilm) [µg/mL] | MBEC (S. aureus biofilm) [µg/mL] | MBC [1] [µg/mL] | MIC [1] [µg/mL] | MBC [2] | MIC [2] | MBC [3] | MIC [3] | HC50 (horse erythrocytes) [µg/mL] | MBC [4] | MIC [4] | MBC [5] | MIC [5] | MBC [6] | MIC [6] | MIC after serum degradation 4 h (E. coli) [µg/mL] | haemolytic activity (in words) (horse erythrocytes)
1 | CC[C@H](C)[C@H](NC(=O)[C@H](C)NC(=O)[C@H](CCCCN)NC(=O)[C@@H](NC(=O)[C@H](C)NC(=O)[C@@H](NC(=O)[C@@H]1CCCN1C(=O)[C@@H](NC(=O)[C@H](CCSC)NC(=O)CNC(=O)[C@@H](CC(C)C)NC(=O)[C@@H](N)CC(C)C)[C@@H](C)CC)C(C)C)[C@@H](C)CC)C(=O)N[C@@H](CO)C(=O)N[C@@H](C)C(=O)N[C@@H](CC(C)C)C(=O)N[C@@H](CO)C(=O)N[C@@H](CCCCN)C(=O)N[C@@H](CC(C)C)C(N)=O [medusin-PT1a] (H-L[dL]GMIPVAIKAISALSKL-NH2) | 32 | 64 | 16 (≈ 8.71 µM) | 8 (≈ 4.35 µM) | 128/128 μg/ml | 128/128 μg/ml | > 512 µg/mL | 128 µg/mL (≈ 69.7 µM) | 226.7 | 32/32 μg/ml | 32/32 μg/ml | 8/8 μg/ml | 8/8 μg/ml | 32 µg/mL (≈ 17.4 µM) | 16 µg/mL (≈ 8.71 µM) | – | –
2 | LLGMIKVAITAISALSKL-NH2 [medusin-PT2] | 32 | 256 | 16 | 8 | – | – | >512/>512 μg/ml | – | 93.83 | 32/32 μg/ml | 32/32 μg/ml | 8/8 μg/ml | 8/8 μg/ml | 32/32 μg/ml | 32/32 μg/ml | – | –
3 | LLGMIPVAIKAISALSKL-NH2 [medusin-PT1] | 32 | 128 | 16 | 8 | – | – | >512/>512 μg/ml | >512/>512 μg/ml | 102.2 | 32/32 μg/ml | 32/32 μg/ml | 16/16 μg/ml | 16/16 μg/ml | 32 µg/mL | 16 µg/mL | > 512 | –
4 | LLGMIPVAITAISALSKL-NH2 [medusin-PT] | 512 | >512 | 128 | 64 | >512/>512 μg/ml | – | >512/>512 μg/ml | – | 1.814e+06 | >512/>512 μg/ml | >512/>512 μg/ml | >512/>512 μg/ml | >512/>512 μg/ml | >512/>512 μg/ml | >512/>512 μg/ml | – | extremely low haemolytic activity
